Columns and labels:
[1] = target: T1, Mineralocorticoid receptor (Homo sapiens, UniProt P08235); experiment: Binding affinity to mineralocorticoid receptor expressed in baculovirus-infected insect cells using tetramethylrhodamine labeled Dexamethasone by fluorescence polarization microplate assay
T1 sequence (P08235 whole entry): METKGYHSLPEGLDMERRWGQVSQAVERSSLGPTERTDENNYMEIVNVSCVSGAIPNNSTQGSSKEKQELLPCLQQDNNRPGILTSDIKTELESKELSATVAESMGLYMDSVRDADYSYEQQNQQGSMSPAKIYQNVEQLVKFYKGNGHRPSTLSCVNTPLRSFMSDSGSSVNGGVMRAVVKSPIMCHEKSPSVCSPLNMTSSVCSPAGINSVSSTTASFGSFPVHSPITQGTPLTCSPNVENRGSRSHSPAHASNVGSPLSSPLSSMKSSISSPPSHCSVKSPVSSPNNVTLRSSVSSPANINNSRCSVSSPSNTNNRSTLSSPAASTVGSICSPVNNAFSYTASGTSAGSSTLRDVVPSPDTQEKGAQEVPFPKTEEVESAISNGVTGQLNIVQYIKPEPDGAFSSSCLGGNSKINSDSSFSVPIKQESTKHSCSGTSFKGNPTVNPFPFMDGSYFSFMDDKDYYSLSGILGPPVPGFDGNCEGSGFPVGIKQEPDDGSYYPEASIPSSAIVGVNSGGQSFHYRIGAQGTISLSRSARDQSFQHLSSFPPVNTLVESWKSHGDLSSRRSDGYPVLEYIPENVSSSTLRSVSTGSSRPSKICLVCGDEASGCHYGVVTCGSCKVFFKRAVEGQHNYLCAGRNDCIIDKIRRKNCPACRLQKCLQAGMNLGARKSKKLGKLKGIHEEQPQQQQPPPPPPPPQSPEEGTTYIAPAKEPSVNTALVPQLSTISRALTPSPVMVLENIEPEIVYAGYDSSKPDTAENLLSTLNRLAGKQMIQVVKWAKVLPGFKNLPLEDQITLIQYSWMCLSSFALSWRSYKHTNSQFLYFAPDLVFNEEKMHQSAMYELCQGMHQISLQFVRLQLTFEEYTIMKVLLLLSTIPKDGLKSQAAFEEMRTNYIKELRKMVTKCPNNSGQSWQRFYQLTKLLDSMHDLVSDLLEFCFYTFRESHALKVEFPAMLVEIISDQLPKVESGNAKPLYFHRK

[2] = target: T2, Glucocorticoid receptor (Homo sapiens, UniProt P04150); experiment: Transrepression activity at glucocorticoid receptor in HFF assessed as inhibition of IL-1-induced IL-6 production after 18 to 24 hrs by ELISA; assay type: cell-based
T2 sequence (P04150 whole entry): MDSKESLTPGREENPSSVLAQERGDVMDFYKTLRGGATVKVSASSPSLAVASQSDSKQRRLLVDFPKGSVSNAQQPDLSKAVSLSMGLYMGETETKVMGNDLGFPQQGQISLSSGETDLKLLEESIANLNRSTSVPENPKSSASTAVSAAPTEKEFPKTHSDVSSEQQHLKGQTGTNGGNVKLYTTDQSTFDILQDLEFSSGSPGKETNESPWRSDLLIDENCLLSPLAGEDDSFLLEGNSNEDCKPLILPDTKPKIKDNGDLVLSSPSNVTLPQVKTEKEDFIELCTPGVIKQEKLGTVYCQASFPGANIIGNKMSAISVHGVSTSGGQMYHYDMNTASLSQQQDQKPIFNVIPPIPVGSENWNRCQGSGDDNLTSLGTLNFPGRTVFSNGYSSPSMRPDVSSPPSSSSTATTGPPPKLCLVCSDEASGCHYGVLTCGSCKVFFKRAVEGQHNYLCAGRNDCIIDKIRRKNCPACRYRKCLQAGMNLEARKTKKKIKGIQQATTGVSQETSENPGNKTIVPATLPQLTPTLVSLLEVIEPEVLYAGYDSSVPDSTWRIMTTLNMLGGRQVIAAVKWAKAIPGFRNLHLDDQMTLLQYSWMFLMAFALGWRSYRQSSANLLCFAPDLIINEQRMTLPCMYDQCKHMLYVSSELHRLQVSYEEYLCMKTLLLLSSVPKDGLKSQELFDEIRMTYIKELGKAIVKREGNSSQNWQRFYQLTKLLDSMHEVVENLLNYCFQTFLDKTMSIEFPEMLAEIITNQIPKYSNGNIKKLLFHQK

[3] = target: T2, Glucocorticoid receptor; experiment: Binding affinity to glucocorticoid receptor expressed in baculovirus-infected insect cells using tetramethylrhodamine labeled Dexamethasone by fluorescence polarization microplate assay
[4] = target: T3, Progesterone receptor (Homo sapiens, UniProt P06401); experiment: Binding affinity to progesterone receptor expressed in baculovirus-infected insect cells using tetramethylrhodamine labeled RU-486 by fluorescence polarization microplate assay
T3 sequence (P06401 whole entry): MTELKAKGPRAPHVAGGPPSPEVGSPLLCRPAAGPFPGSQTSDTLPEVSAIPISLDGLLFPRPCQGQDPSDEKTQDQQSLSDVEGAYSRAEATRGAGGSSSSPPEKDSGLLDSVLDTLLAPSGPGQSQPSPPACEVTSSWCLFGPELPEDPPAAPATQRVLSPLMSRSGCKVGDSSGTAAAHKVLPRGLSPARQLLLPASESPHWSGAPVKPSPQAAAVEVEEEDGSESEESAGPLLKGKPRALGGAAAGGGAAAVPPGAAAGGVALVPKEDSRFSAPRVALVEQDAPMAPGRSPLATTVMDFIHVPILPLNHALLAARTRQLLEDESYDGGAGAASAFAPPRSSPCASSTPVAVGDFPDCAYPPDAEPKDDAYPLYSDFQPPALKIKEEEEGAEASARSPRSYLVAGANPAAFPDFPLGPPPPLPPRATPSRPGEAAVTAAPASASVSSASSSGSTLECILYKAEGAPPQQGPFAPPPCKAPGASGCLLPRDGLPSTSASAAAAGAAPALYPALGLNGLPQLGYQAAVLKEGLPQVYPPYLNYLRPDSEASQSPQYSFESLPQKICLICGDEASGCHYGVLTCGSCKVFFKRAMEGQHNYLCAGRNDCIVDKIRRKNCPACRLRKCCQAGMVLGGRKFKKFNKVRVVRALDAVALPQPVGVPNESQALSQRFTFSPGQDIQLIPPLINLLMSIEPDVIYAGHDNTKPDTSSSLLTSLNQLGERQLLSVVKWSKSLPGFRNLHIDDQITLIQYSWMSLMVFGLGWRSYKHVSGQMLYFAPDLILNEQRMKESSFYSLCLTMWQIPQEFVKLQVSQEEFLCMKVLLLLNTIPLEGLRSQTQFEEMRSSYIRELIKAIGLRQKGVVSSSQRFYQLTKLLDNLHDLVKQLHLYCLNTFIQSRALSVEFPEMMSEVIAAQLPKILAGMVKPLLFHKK

[5] = target: T2, Glucocorticoid receptor; experiment: Transactivation activity at glucocorticoid receptor in human HeLa cells transfected with luciferase gene linked to MMTV promoter by luciferase assay; assay type: cell-based
[6] = target: T2, Glucocorticoid receptor; experiment: Transactivation activity at glucocorticoid receptor in HFF assessed as induction of aromatase activity after 18 to 24 hrs by ELISA; assay type: cell-based

| Structure (SMILES) | IC50 [1] [nM] | IC50 [2] [nM] | IC50 [3] [nM] | IC50 [4] [nM] | IC50 [5] [nM] | EC50 [6] [nM] |
| --- | --- | --- | --- | --- | --- | --- |
| COc1ccc(F)cc1C(C)(C)CC(O)(Cc1cc2ccncc2s1)C(F)(F)F (stereo unspecified) | 220 | 35 | 7.1 | 1300 | – | – |
| COc1ccc(F)cc1C(C)(C)CC(O)(Cc1cc2cc[n+]([O-])cc2[nH]1)C(F)(F)F (stereo unspecified) | > 2000 | – | 860 | > 2000 | – | – |
| COc1ccc(-c2ccccc2)cc1C(C)(C)CC(O)(Cc1cc2ccncc2[nH]1)C(F)(F)F (stereo unspecified) | 480 | 40 | 12 | 1200 | – | 69 |
| CC(C)(CC(O)(Cc1cc2ccncc2[nH]1)C(F)(F)F)c1cc(-c2ccccc2)ccc1O (stereo unspecified) | 160 | 15 | 11 | 1300 | 47 | 45 |
| CC(C)(CC(O)(Cc1cc2ccncc2[nH]1)C(F)(F)F)c1cccc(F)c1 (stereo unspecified) | > 2000 | 99 | 23 | 8 | – | > 2000 |
| COc1ccc(F)cc1C(C)(C)CC(O)(Cc1cc2cnccc2[nH]1)C(F)(F)F (stereo unspecified) | 320 | 8.2 | 7.3 | > 2000 | – | – |
| COc1ccc(F)cc1C(C)(C)CC(O)(Cc1cc2ccccn2n1)C(F)(F)F (stereo unspecified) | > 2000 | > 2000 | 690 | > 2000 | – | – |
| COc1ccc(F)cc1C(C)(C)C[C@@](O)(Cc1cc2cnccc2[nH]1)C(F)(F)F | 58 | 2 | 1.4 | 600 | 22 | 35 |
| COc1ccc(-c2cncnc2)cc1C(C)(C)CC(O)(Cc1cc2ccncc2[nH]1)C(F)(F)F (stereo unspecified) | > 2000 | 50 | 27 | > 2000 | – | – |
| CC(C)(CC(O)(Cc1cc2ccncc2[nH]1)C(F)(F)F)c1cc(-c2cncnc2)ccc1O (stereo unspecified) | 1700 | 21 | 19 | > 2000 | – | – |
| CC(C)(CC(O)(Cc1cc2ccncc2[nH]1)C(F)(F)F)c1cccc2c1OCC2 (stereo unspecified) | 780 | 15 | 4.5 | 130 | > 2000 | 30 |

Other lines, results leading:

| IC50 [1] [nM] | IC50 [2] [nM] | IC50 [3] [nM] | IC50 [4] [nM] | IC50 [5] [nM] | EC50 [6] [nM] | Structure (SMILES) |
| --- | --- | --- | --- | --- | --- | --- |
| 280 | 9.3 | 2.3 | 450 | > 2000 | – | CC(C)(CC(O)(Cc1cc2ccncc2[nH]1)C(F)(F)F)c1cc(F)cc2c1OCC2 (stereo unspecified) |
| 380 | 6.6 | 21 | 250 | – | – | COc1ccc(F)cc1C(C)(C)CC(O)(Cc1cc2ccccc2[nH]1)C(F)(F)F (stereo unspecified) |
| – | – | – | > 2000 | – | – | C[C@@H]1C[C@H]2[C@@H]3CCC4=CC(=O)C=C[C@]4(C)[C@@]3(F)[C@@H](O)C[C@]2(C)[C@@]1(O)C(=O)CO [DEXAMETHASONE] |
| 540 | 17 | 7 | 1210 | > 2000 | 120 | CC(C)(CC(O)(Cc1cc2ccncc2[nH]1)C(F)(F)F)c1cc(Cl)cc2c1OCC2 (stereo unspecified) |
| > 2000 | 430 | 1700 | > 2000 | – | – | COc1ccc(F)cc1C(C)(C)C[C@](O)(Cc1cc2ccncc2[nH]1)C(F)(F)F |
| > 2000 | 120 | 23 | > 2000 | – | – | COc1ccc(F)cc1C(C)(C)CC(O)(Cc1cc2ncccc2[nH]1)C(F)(F)F (stereo unspecified) |
| 390 | 30 | 8 | > 2000 | – | > 2000 | COc1ccc(-c2cccnc2)cc1C(C)(C)CC(O)(Cc1cc2ccncc2[nH]1)C(F)(F)F (stereo unspecified) |
| 810 | 31 | 9.3 | 190 | > 2000 | > 2000 | CC(C)(CC(O)(Cc1cc2ccncc2[nH]1)C(F)(F)F)c1ccccc1 (stereo unspecified) |
| > 2000 | – | 1400 | > 2000 | – | – | COc1ccc(F)cc1C(C)(C)CC(O)(Cn1ccc2ccncc21)C(F)(F)F (stereo unspecified) |
| 1050 | > 2000 | 22 | > 2000 | – | – | COc1ccc(F)cc1C(C)(C)CC(O)(Cc1cc2ccncc2o1)C(F)(F)F (stereo unspecified) |
| 220 | 3 | 4.7 | 1900 | 56 | 45 | CC(C)(C[C@@](O)(Cc1cc2cnccc2[nH]1)C(F)(F)F)c1cc(F)ccc1O |
| 910 | > 2000 | 21 | > 2000 | – | – | COc1ccc(F)cc1C(C)(C)CC(O)(Cc1cc2cccnc2[nH]1)C(F)(F)F (stereo unspecified) |
| 48 | 2.8 | 2 | 200 | – | – | COc1ccc(F)cc1C(C)(C)CC(O)(Cn1ccc2ncccc21)C(F)(F)F (stereo unspecified) |
| 580 | 9.8 | 4.4 | > 2000 | – | – | COc1ccc(F)cc1C(C)(C)CC(O)(Cc1cc2ccncc2[nH]1)C(F)(F)F (stereo unspecified) |
| 230 | 23 | 6.6 | > 2000 | > 2000 | – | CC(C)(CC(O)(Cc1cc2ccncc2[nH]1)C(F)(F)F)c1cc(-c2cccnc2)ccc1O (stereo unspecified) |
